Experiments:
Format in all cases: cell-based, human
MCF7 cells [1] = experiment: Total cellular ROS measurement (CellRox Green); conditions: 25 μM, 6-8 hours
Protocol: (§1) The MCF7 breast cancer cell line (ATCC, HTB-22) was purchased from American Type Culture Collection (ATCC, Manassas, VA) and propagated in Eagle's minimum essential medium (EMEM, ATCC) supplemented with 10% FBS (Thermo Scientific), 1% L-glutamine and 1% penicillin/streptomycin (ATCC) in a humidified incubator at 37° C. and 5% CO2. Cells were harvested and seeded into a 96-well black plate at a cell density of 25,000 cells/well and left overnight to adhere. Afterward, cells were treated with 25 μM of the 14 purchased ligands from MolPort (Riga, Latvia), positive control (i.e., doxorubicin), and negative control (i.e., DMSO) and left in the incubator for 6-8 hours. For the Qo and Qi inhibition experiments, 25 μM of myxothiazol or antimycin A (Sigma-Aldrich), respectively were also incubated. Negative controls for the inhibition experiments were composed of DMSO and either 25 μM of myxothiazol or antimycin A. Afterward, cells were washed and stained for 30 minutes at 37° C. and 5% CO2 in the dark using the CellRox Green (Invitrogen, USA) or the MitoSOX Red Assay Kit (Invitrogen, USA). Afterward, cells were washed, and total cellular ROS or mitochondrial superoxide anion levels were measured using the Synergy Biotek UV/Vis/fluorescence microplate reader with excitation/emission wavelengths of 490/525 nm or 396/610 nm, respectively. Nuclei were labeled using NucBlue Live ReadyProbes Reagent (Hoechst 33342). All experiments were performed in at least triplicate and repeated for at least three independent trials.

MCF7 cells [2] = experiment: Qo and Qi inhibition experiments: mitochondrial superoxide anion with myxothiazol or antimycin A; conditions: for mitochondrial superoxide anion level, ligand with antimycin (ANT): 25 μM ligand + 25 μM ANT (Qi site inhibitor); for mitochondrial superoxide anion level, ligand with myxothiazol (MYX): 25 μM ligand + 25 μM MYX (Qo site inhibitor)
Protocol: as §1

MCF7 cells [3] = experiment: MTS cytotoxicity assay; conditions: MCF7 cell line, 48 hours
Description: MCF7 cells were harvested and seeded at a cell density of 5,000 cells/well into a 96-well white plate and left overnight to adhere. […] Then, cells were washed and assayed for cytotoxicity using CellTiter 96® AQueous One Solution Cell Proliferation Assay kit (MTS) (Promega, USA), which is a colorimetric assay containing colorless tetrazolium compound that is bio-reduced by NADPH or NADH produced by dehydrogenase enzymes in metabolically active cells into a colored formazan product that can be measured at wavelength 490 nm using the Synergy Biotek plate reader. Sequential treatment was performed by incubating the overnight attached MCF7 cells with 25 μM of MH-200102 for 24 hours. Then, the cells were washed once and incubated with different concentrations of MH-101015 for another 24 hours. Then, the cells were assayed for cytotoxicity, as mentioned above.

Compound | total ROS level compared to negative control (DMSO) (MCF7 cells [1]) | mitochondrial superoxide anion level, ligand with antimycin (ANT) (MCF7 cells [2]) | mitochondrial superoxide anion level, ligand with myxothiazol (MYX) (MCF7 cells [2]) | cytotoxic activity (MCF7 cells [3]; 0-100 μM) | IC50 (MCF7 cells [3]; Homo sapiens, single treatment, read-out: cytotoxic activity IC50) [µM]
O=C(O)c1cccc2ncccc12 [MH-01015] | total ROS down-regulating activity | ANT blocks any ROS down-regulating activity | MYX blocks any ROS down-modulating activity |  | 
Cc1cc(I)ccc1NC(=O)c1ccc(Br)c(N)c1 [MH-04504] | modest total ROS upregulating activity |  | MYX blocks the ROS up-modulating activity | modest cytotoxic activity | 
COCc1cnc2n1CCN(C(=O)c1cscn1)[C@H]2C [MH-131013] | total ROS down-regulating activity | ANT blocks any ROS down-regulating activity | MYX blocks any ROS down-modulating activity |  | 
O=C(CSc1ccccc1)NCCCn1ccnc1 [MH-200102] | twofold |  | MYX blocks the ROS up-modulating activity |  | 14.6
